Legend:
Cannabinoid receptor 2 = Cannabinoid receptor 2 (Homo sapiens, UniProt P34972)
Description: Inhibitory concentration tested against human Cannabinoid receptor 2 (hCB2)

in vivo [1] = details: rat, iv, 1 mg/kg
Description: Volume of distribution at steady state was determined in rat after intravenous administration of 1 mg/kg compound

in vivo [2] = details: rat, po, 2 mg/kg
in vivo [3] = details: rat, iv, 1 mg/kg; remark: listed apart in the source
in vivo [4] = details: rat, iv, 1 mg/kg; remark: listed apart in the source
Description: Half life period was determined in rat after intravenous administration of 1 mg/kg compound

Sequence of Cannabinoid receptor 2 (P34972 whole entry): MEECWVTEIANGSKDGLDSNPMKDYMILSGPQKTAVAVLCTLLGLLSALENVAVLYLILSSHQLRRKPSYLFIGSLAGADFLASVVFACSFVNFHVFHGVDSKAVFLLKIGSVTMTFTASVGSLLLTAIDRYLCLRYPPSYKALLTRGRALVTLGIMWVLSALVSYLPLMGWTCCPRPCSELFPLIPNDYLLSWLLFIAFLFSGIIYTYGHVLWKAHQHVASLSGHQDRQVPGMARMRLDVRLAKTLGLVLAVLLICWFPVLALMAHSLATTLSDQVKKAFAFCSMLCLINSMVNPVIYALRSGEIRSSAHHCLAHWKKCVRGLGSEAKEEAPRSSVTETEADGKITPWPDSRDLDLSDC

With `CCCNC(=O)c1cc(-c2ccc(Cl)cc2)c(-c2ccc(Cl)cc2Cl)nc1OCc1ccc(F)c(F)c1` the IC50 (Cannabinoid receptor 2) was 0.815 µM, the Vd (in vivo [1]) was 0.4 L/kg and the bioavailability (in vivo [2]) was 12%. For the same compound, the clearance (in vivo [3]) was 0.348 L/h/kg and the half-life (in vivo [4]) was 2.5 h.

Reference: ChEMBL document CHEMBL1144282, “Synthesis and SAR of 5,6-diarylpyridines as human CB1 inverse agonists” (Bioorg Med Chem Lett, 2005)
